Source: patent US10245237B2, “Compressed tablet containing cannabidiol, method for its manufacture and use of such tablet in oral treatment of psychosis or anxiety disorders” (Echo Pharmaceuticals B.V., priority 2013, dated 2019)

Tests used:
[1] = Rate of dissolution of CBD according to Ph. Eur. 2.9.3 for oral tablets; assay type: physicochemical; conditions: 1 wt. % SDS in water, pH 7, 36-41° C.
Procedure: The rate of dissolution of CBD from the compressed tablets described in Example 2 was tested according to European Pharmacopeia (Ph. Eur. 2.9.3) for oral tablets. The rate of dissolution of pure CBD (20 mg) was determined using the same method.
The dissolution medium consisted of a solution of 1 wt. % SDS in water. The pH of the medium had been adjusted to 7 with diluted HCl. During the experiments, the temperature of the dissolution media was maintained between 36 and 41° C. under stirring. After dropping the tablet in the dissolution medium, samples were taken at various time intervals with a disposable syringe. The samples were filtered immediately over a syringe filter into a HPLC vial and analyzed by HPLC.

[2] = A. J. Poortman, H. Huizer, Forensic Science International (1999); cited from earlier work
schizophrenic patient = conditions: cited from earlier work

SMILES: C=C(C)[C@@H]1CCC(C)=C[C@H]1c1c(O)cc(CCCCC)cc1O [CBD, cannabidiol]
- % (w/w) of CBD dissolved ([1]; 1 min): 2.6 % (w/w)
- % (w/w) of CBD dissolved ([1]; 4 min): 9.2 % (w/w)
- % (w/w) of CBD dissolved ([1]; 8 min): 18.6 % (w/w)
- % (w/w) of CBD dissolved ([1]; 15 min): 27.4 % (w/w)
- % (w/w) of CBD dissolved ([1]; 30 min): 35.2 % (w/w)
- % (w/w) of CBD dissolved ([1]; 45 min): 42.4 % (w/w)
- % (w/w) of CBD dissolved ([1]; 60 min): 45.5 % (w/w)
- stability of the drug [2]: unstable
- symptom course (schizophrenic patient; patient with schizophrenia, dose doubled every 5 days, at 1280 mg/day): trend for symptom improvement
- clinical course during CBD treatment (schizophrenic patient; schizophrenic patient, CBD dissolved in oil up to 1500 mg/day for 4 weeks): significant improvement
